Structures can show the parent of a compound that is named as a salt.

Experimental findings from patent US20240101528A1, “SUBSTITUTED PYRAZOLO PIPERIDINE CARBOXYLIC ACIDS” (BAYER AKTIENGESELLSCHAFT, priority 2020, published 2024) are described below.

Data set [1] is described as follows: Pharmacokinetic parameters following oral administration in rats. The note with it: for F: bioavailability. The data set is classed as in vivo, male Wistar rats. On the procedure:
(§1) B-5. Determination of Pharmacokinetic Parameters Following Intravenous and Oral Administration
(§2) The pharmacokinetic parameters of the compounds according to the invention were determined in male Wistar rats and/or in female beagles and/or in cynomolgus monkeys and/or in male CD-1 mice. Intravenous administration in the case of mice and rats was carried out by means of a species-specific plasma/DMSO formulation, and in the case of dogs and monkeys by means of a water/PEG400/ethanol formulation. In all species, oral administration of the dissolved substance was performed via gavage, based on a water/PEG400/ethanol formulation.
(§3) An internal standard (which may also be a chemically unrelated substance) was added to the samples of the compounds of the invention, calibration samples and qualifiers, and there followed protein precipitation by means of acetonitrile in excess. Addition of a buffer solution matched to the LC conditions, and subsequent vortexing, was followed by centrifugation at 1000 g. The supernatant was analysed by LC-MS/MS using C18 reversed-phase columns and variable mobile phase mixtures. The substances were quantified via the peak heights or areas from extracted ion chromatograms of specific selected ion monitoring experiments.
(§4) The plasma concentration/time plots determined were used to calculate the pharmacokinetic parameters such as AUC, Cmax, t1/2 (terminal half-life), F (bioavailability), MRT (mean residence time) and CL (clearance), by means of a validated pharmacokinetic calculation program.
(§5) Since the substance quantification was performed in plasma, it was necessary to determine the blood/plasma distribution of the substance in order to be able to adjust the pharmacokinetic parameters correspondingly. For this purpose, a defined amount of substance was incubated in K3 EDTA whole blood of the species in question in a rocking roller mixer for 20 min. After centrifugation at 1000 g, the plasma concentration was measured (by means of LC-MS/MS; see above) and determined by calculating the ratio of the Cblood/Cplasma value.

Data set [2] has as its target T1, recombinant guanylate cyclase reporter cell line (Rattus norvegicus, UniProt P20595).
T1 construct: expressed in transfected cells
T1 sequence (P20595 1-619): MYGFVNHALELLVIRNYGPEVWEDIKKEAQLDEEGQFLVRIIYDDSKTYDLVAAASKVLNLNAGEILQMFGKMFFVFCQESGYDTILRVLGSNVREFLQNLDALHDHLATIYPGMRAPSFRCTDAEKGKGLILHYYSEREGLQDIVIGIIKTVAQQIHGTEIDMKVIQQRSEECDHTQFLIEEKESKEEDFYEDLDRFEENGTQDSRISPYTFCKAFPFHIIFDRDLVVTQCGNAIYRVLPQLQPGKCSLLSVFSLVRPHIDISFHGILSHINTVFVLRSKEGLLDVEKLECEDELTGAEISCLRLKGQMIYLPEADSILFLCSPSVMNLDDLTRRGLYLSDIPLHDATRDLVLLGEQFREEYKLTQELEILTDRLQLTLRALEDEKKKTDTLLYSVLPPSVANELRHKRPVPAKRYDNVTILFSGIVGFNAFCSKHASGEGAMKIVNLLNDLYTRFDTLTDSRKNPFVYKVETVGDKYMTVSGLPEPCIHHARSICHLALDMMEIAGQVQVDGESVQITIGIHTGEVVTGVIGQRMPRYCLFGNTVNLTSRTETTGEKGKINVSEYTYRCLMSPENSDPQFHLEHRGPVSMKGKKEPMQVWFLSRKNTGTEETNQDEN
T1 sequence (P19686 1-690 partner): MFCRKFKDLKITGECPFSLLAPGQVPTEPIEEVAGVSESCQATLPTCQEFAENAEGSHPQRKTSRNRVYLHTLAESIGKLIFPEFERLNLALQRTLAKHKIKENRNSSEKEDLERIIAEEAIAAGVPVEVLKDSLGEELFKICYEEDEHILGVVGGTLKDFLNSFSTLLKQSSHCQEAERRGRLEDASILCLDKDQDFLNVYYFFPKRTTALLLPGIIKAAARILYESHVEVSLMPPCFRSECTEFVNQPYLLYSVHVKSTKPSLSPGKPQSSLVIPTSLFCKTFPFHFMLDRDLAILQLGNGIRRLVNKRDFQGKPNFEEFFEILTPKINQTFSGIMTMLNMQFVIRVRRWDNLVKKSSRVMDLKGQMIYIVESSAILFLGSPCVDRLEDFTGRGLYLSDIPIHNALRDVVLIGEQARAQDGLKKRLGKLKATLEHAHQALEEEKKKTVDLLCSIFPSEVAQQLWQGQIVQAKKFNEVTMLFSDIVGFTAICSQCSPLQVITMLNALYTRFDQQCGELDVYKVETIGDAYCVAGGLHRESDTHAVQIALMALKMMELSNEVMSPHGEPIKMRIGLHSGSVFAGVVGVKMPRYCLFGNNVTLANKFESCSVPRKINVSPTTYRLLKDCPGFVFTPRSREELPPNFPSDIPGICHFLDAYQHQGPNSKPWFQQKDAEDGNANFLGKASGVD
The data set is described as follows: Effect on a recombinant guanylate cyclase reporter cell line. The format is cell-based. The note with it: for MEC: minimum effective concentration; for EC50: half maximal effective concentration. As to the method:
B-1. Effect on a Recombinant Guanylate Cyclase Reporter Cell Line
The cellular activity of the compounds according to the invention was determined using a recombinant guanylate cyclase reporter cell line, as described in F. Wunder et al., Anal. Biochem. 339, 104-112 (2005).

A short description of data set [3]: Pharmacokinetic parameters following intravenous administration in rats. The data set is classed as in vivo, male Wistar rats. The settings on record: for AUCnorm: intravenous administration. On the procedure: as §1, §2, §3, §4, §5

In data set [1], `O=C(O)c1cnn(C2CCCN(c3cc(Cl)ccc3-c3ccc(N4CCN(CC(F)(F)F)CC4)cc3)C2)c1C(F)F` (single isomer, unassigned; enantiomer 1) [Example 20, 1-[1-[5-Chloro-2-[4-[4-(2,2,2-trifluoroethyl)piperazin-1-yl]phenyl]phenyl]-3-piperidyl]-5-(difluoromethyl)pyrazole-4-carboxylic acid (Enantiomer 1)] yielded an AUCnorm of 2.11 kg·h/L and an F of 91.7%. The MEC in data set [2] was 1.6 nM. Also, in data set [3] (after i.v. application), the “Half live in comparison to example 174 in WO 2012/058132” value is recorded as “longer” and the “mean residence time (MRT) in comparison to example 174 in WO 2012/058132” value is “longer”. In data set [3], this compound came in with an AUCnorm of 2.29 kg·h/L.

On to `CCCN1CCN(c2ccc(-c3ccc(Cl)cc3N3CCCC(n4ncc(C(=O)O)c4C(F)F)C3)cc2)CC1` (single isomer, unassigned; enantiomer 2) [Example 5, 1-{1-[4-Chloro-4′-(4-propylpiperazin-1-yl)[biphenyl]-2-yl]piperidin-3-yl}-5-(difluoromethyl)-1H-pyrazole-4-carboxylic acid hydrochloride (Enantiomer 2)], for which, in data set [1], the AUCnorm turned out to be 0.84 kg·h/L and the F came to 59.9%. In addition, the MEC in data set [2] stood at 0.3 nM. The same compound showed an AUCnorm in data set [3] of 1.40 kg·h/L.

For orientation: EC50 means the concentration giving half of the maximal effect. For `O=C(O)c1cnn(C2CCCN(c3cc(Cl)ccc3-c3ccc(N4CCN(CCC(F)(F)F)CC4)nc3)C2)c1C(F)F` (single isomer, unassigned; enantiomer 2) [Example 67, 1-[1-(5-Chloro-2-{6-[4-(3,3,3-trifluoropropyl)piperazin-1-yl]pyridin-3-yl}phenyl)piperidin-3-yl]-5-(difluoromethyl)-1H-pyrazole-4-carboxylic acid hydrochloride (Enantiomer 2)], in data set [2], the EC50 is < 1 nM and the MEC was <0.3 nM.

Turning to `CC(=O)N1CCN(c2ccc(-c3ccc(Cl)cc3N3CCCC(n4ncc(C(=O)O)c4C(F)F)C3)cn2)CC1` (single isomer, unassigned; enantiomer 2) [Example 68, 1-(1-{2-[6-(4-Acetylpiperazin-1-yl)pyridin-3-yl]-5-chlorophenyl}piperidin-3-yl)-5-(difluoromethyl)-1H-pyrazole-4-carboxylic acid hydrochloride (Enantiomer 2)], in data set [2], the half-maximal effective concentration (EC50) was found to be 68 nM and the MEC is on record as 30.0 nM.

As to `Cc1cc(N2CCN(CC(F)(F)F)CC2)ncc1-c1ccc(Cl)cc1N1CCCC(n2ncc(C(=O)O)c2C(F)F)C1` (single isomer, unassigned; enantiomer 2) [Example 69, 1-[1-(5-Chloro-2-{4-methyl-6-[4-(2,2,2-trifluoroethyl)piperazin-1-yl]pyridin-3-yl}phenyl)piperidin-3-yl]-5-(difluoromethyl)-1H-pyrazole-4-carboxylic acid hydrochloride (Enantiomer 2)], in data set [2], the EC50 was 45.5 nM and the MEC is 30.0 nM.

With `CC(C)CN1CCN(c2ncc(-c3ccc(Cl)cc3N3CCCC(n4ncc(C(=O)O)c4C(F)F)C3)cn2)CC1` (single isomer, unassigned; enantiomer 2) [Example 70, 1-(1-{5-Chloro-2-[2-(4-isobutylpiperazin-1-yl)pyrimidin-5-yl]phenyl}piperidin-3-yl)-5-(difluoromethyl)-1H-pyrazole-4-carboxylic acid hydrochloride (Enantiomer 2)], in data set [2], the EC50 was determined as 21.5 nM and the MEC is 3.0 nM.

On to `CN1CCN(c2ncc(-c3ccc(Cl)cc3N3CCCC(n4ncc(C(=O)O)c4C(F)F)C3)cn2)CC1` (single isomer, unassigned; enantiomer 2) [Example 71, 1-(1-{5-Chloro-2-[2-(4-methylpiperazin-1-yl)pyrimidin-5-yl]phenyl}piperidin-3-yl)-5-(difluoromethyl)-1H-pyrazole-4-carboxylic acid hydrochloride (Enantiomer 2)], for which, in data set [2], the EC50 came to 92 nM and the MEC came out at 30.0 nM.

Consider `O=C(O)c1cnn(C2CCCN(c3cc(Cl)ccc3-c3cnc(N4CCN(CC5CC5)CC4)nc3)C2)c1C(F)F` (single isomer, unassigned; enantiomer 2) [Example 72, 1-[1-(5-Chloro-2-{2-[4-(cyclopropylmethyl)piperazin-1-yl]pyrimidin-5-yl}phenyl)piperidin-3-yl]-5-(difluoromethyl)-1H-pyrazole-4-carboxylic acid hydrochloride (Enantiomer 2)], for which, in data set [2], the EC50 stood at 18 nM and the MEC worked out at 3.0 nM.

Turning to `CCN1CCN(c2ccc(-c3ccc(C(F)(F)F)cc3N3CCCC(n4ncc(C(=O)O)c4C(F)F)C3)cc2)CC1` (single isomer, unassigned; enantiomer 2) [Example 74, 5-(Difluoromethyl)-1-{1-[4′-(4-ethylpiperazin-1-yl)-4-(trifluoromethyl)[biphenyl]-2-yl]piperidin-3-yl}-1H-pyrazole-4-carboxylic acid hydrochloride (Enantiomer 2)], in data set [2], the EC50 was 79.5 nM and the MEC is 10.0 nM.

`O=C(O)c1cnn(C2CCCN(c3cc(Cl)ccc3-c3ccc(N4CCN(C(=O)[C@H]5C[C@H]5F)CC4)cc3)C2)c1C(F)F` (single isomer, unassigned; stereoisomer 2) [Example 35]: in data set [2], the EC50 was 11.3 nM and the MEC stood at 2.0 nM.

Take `O=C(O)c1cnn(C2CCCN(c3cc(Cl)ccc3-c3ccc(N4CCN(C[C@@H]5C[C@@H]5F)CC4)cc3)C2)c1C(F)F` (single isomer, unassigned; stereoisomer 2) [Example 36]: in data set [2], the EC50 was 4.2 nM and the MEC came out at 1.0 nM.

Consider `O=C(O)c1cnn(C2CCCN(c3cc(Cl)ccc3-c3ccc(N4CCN(C[C@H]5C[C@H]5F)CC4)cc3)C2)c1C(F)F` (single isomer, unassigned; stereoisomer 2) [Example 37], for which, in data set [2], the EC50 was 2.1 nM and the MEC is reported as 1.0 nM.

Broadly, the MRT is the average time that molecules of a dose stay in the body. In data set [1], `O=C(O)c1cnn(-c2cccc(-c3cc(Cl)ccc3-c3ccc(N4CCN(CC5CC5)CC4)cc3)n2)c1C(F)(F)F` [174 (WO2012/058132), reference compound] yielded an AUCnorm of 0.63 kg·h/L, an MRT of 8.41 h and an F of 81.8%. Further, the AUCnorm in data set [3] was determined as 0.77 kg·h/L.
